Key:
[1] = target: T1, Xanthine dehydrogenase/oxidase (Bos taurus, UniProt P80457); test: Inhibition of bovine milk xanthine oxidase using xanthine as substrate assessed as decrease in uric acid formation at 50 uM preincubated for 5 mins; conditions: cattle
[2] = target: T1, Xanthine dehydrogenase/oxidase; test: Inhibition of bovine milk xanthine oxidase using xanthine as substrate assessed as decrease in uric acid formation preincubated for 5 mins

T1 sequence (P80457 whole entry): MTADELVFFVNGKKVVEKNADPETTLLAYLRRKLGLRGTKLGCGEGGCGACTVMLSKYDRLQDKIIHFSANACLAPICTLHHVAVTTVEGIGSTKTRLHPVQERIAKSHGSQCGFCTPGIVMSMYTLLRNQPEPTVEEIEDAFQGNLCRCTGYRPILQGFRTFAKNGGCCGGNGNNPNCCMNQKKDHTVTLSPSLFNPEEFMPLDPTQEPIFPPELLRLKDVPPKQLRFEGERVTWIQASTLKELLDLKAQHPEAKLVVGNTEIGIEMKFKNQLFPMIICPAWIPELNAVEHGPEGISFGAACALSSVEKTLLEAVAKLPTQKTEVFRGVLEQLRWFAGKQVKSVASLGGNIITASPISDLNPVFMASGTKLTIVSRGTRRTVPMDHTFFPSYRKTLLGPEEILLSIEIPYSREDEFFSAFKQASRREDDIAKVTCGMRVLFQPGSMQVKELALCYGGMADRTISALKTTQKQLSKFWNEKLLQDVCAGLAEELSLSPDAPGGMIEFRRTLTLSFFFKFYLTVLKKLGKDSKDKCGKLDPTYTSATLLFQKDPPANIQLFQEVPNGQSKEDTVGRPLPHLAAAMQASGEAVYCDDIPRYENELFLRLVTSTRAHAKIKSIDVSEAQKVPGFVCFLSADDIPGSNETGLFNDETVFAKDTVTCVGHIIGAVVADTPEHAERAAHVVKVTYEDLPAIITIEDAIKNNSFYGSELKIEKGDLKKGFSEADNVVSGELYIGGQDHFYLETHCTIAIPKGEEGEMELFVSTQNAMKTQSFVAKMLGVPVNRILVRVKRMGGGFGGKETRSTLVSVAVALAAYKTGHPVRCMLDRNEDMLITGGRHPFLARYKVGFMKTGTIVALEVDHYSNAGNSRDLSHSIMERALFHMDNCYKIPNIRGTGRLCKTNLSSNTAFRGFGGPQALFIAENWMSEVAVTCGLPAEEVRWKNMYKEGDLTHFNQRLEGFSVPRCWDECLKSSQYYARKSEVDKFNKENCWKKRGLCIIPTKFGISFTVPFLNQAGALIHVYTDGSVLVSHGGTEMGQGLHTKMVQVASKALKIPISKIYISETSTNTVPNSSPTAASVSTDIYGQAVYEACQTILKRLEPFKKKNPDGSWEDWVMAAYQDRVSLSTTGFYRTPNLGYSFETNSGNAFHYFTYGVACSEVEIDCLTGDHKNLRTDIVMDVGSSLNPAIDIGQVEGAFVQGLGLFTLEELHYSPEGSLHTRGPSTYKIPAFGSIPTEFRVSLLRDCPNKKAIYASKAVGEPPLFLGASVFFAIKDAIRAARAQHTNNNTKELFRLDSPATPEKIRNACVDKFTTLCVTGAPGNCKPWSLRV

SMILES: COC(=O)C1=C(C)Oc2ccc3ccccc3c2C1c1ccc(O)c(OC)c1 (stereo unspecified)
- inhibition at 50 µM [1]: 67.5%

SMILES: CCOC(=O)C1=C(C)Oc2ccc3ccccc3c2C1/C=C/c1ccccc1 (stereo unspecified)
- inhibition at 50 µM [1]: 11.3%

SMILES: COC(=O)C1=C(C)Oc2ccc3ccccc3c2C1c1ccc(OC)cc1 (stereo unspecified)
- IC50 [2]: 36.5 µM
- inhibition at 50 µM [1]: 68.7%

SMILES: COC(=O)C1=C(C)Oc2ccc3ccccc3c2C1c1ccc(Cl)cc1 (stereo unspecified)
- inhibition at 50 µM [1]: 23.9%

SMILES: COC(=O)C1=C(C)Oc2ccc3ccccc3c2C1c1ccc([N+](=O)[O-])cc1 (stereo unspecified)
- inhibition at 50 µM [1]: 25%

SMILES: COC(=O)C1=C(C)Oc2ccc3ccccc3c2C1c1cccc(Oc2ccccc2)c1 (stereo unspecified)
- inhibition at 50 µM [1]: 59.6%

SMILES: CCCCCC1C(C(=O)OC)=C(C)Oc2ccc3ccccc3c21 (stereo unspecified)
- inhibition at 50 µM [1]: 58.9%

SMILES: COC(=O)C1=C(C)Oc2ccc3ccccc3c2C1c1ccc(O)cc1 (stereo unspecified)
- IC50 [2]: 24 µM
- inhibition at 50 µM [1]: 72.4%

SMILES: COC(=O)C1=C(C)Oc2ccc3ccccc3c2C1c1ccc(OC)c(O)c1 (stereo unspecified)
- inhibition at 50 µM [1]: 69.3%

SMILES: COC(=O)C1=C(C)Oc2ccc3ccccc3c2C1c1ccccc1OC (stereo unspecified)
- inhibition at 50 µM [1]: 58.8%

SMILES: COC(=O)C1=C(C)Oc2ccc3ccccc3c2C1c1ccc(OC)c(OC)c1 (stereo unspecified)
- IC50 [2]: 17 µM
- inhibition at 50 µM [1]: 78.2%

SMILES: COC(=O)C1=C(C)Oc2ccc3ccccc3c2C1c1cc(OC)c(OC)c(OC)c1 (stereo unspecified)
- inhibition at 50 µM [1]: 50%

SMILES: COC(=O)C1=C(C)Oc2ccc3ccccc3c2C1c1cccs1 (stereo unspecified)
- IC50 [2]: 4 µM
- inhibition at 50 µM [1]: 96.6%

SMILES: COC(=O)C1=C(C)Oc2ccc3ccccc3c2C1c1ccco1 (stereo unspecified)
- IC50 [2]: 10 µM
- inhibition at 50 µM [1]: 92.5%

SMILES: CCOC(=O)C1=C(C)Oc2ccc3ccccc3c2C1c1ccc(OC)c(O)c1 (stereo unspecified)
- inhibition at 50 µM [1]: 64.7%

SMILES: CCOC(=O)C1=C(C)Oc2ccc3ccccc3c2C1c1ccc(OC)c(OC)c1 (stereo unspecified)
- inhibition at 50 µM [1]: 62.3%

SMILES: CCOC(=O)C1=C(C)Oc2ccc3ccccc3c2C1c1cccs1 (stereo unspecified)
- IC50 [2]: 11.4 µM
- inhibition at 50 µM [1]: 89%

SMILES: CCOC(=O)C1=C(C)Oc2ccc3ccccc3c2C1c1ccco1 (stereo unspecified)
- IC50 [2]: 13.2 µM
- inhibition at 50 µM [1]: 88.6%

SMILES: COC(=O)C1=C(C)Oc2ccc3ccccc3c2C1c1sccc1C (stereo unspecified)
- IC50 [2]: 7.31 µM
- inhibition at 50 µM [1]: 93.3%

SMILES: COC(=O)C1=C(C)Oc2ccc3ccccc3c2C1c1ccc[nH]1 (stereo unspecified)
- IC50 [2]: 6.23 µM
- inhibition at 50 µM [1]: 94.5%

SMILES: COC(=O)C1=C(C)Oc2ccc3ccccc3c2C1
- inhibition at 50 µM [1]: 32%

SMILES: CCOC(=O)C1=C(C)Oc2ccc3ccccc3c2C1c1ccccc1 (stereo unspecified)
- IC50 [2]: 44.4 µM
- inhibition at 50 µM [1]: 65.2%

SMILES: CCOC(=O)C1=C(C)Oc2ccc3ccccc3c2C1c1ccc(OC)cc1 (stereo unspecified)
- inhibition at 50 µM [1]: 56.5%

SMILES: CCOC(=O)C1=C(C)Oc2ccc3ccccc3c2C1c1ccc(Cl)cc1 (stereo unspecified)
- inhibition at 50 µM [1]: 20.9%

SMILES: CCOC(=O)C1=C(C)Oc2ccc3ccccc3c2C1c1ccc([N+](=O)[O-])cc1 (stereo unspecified)
- inhibition at 50 µM [1]: 21.4%

SMILES: CCOC(=O)C1=C(C)Oc2ccc3ccccc3c2C1c1cccc(Oc2ccccc2)c1 (stereo unspecified)
- inhibition at 50 µM [1]: 50.5%

Reference: ChEMBL document CHEMBL3102850, “Microwave assisted synthesis of naphthopyrans catalysed by silica supported fluoroboric acid as a new class of non purine xanthine oxidase inhibitors” (Bioorg Med Chem Lett, 2014)
